In PMC8151276, “An Integrated Approach toward NanoBRET Tracers for Analysis of GPCR Ligand Engagement” (Molecules, 2021):

Experiments:
LGR5 = biological target: T1, LGR5 (Homo sapiens, UniProt O75473); assay: NanoBRET screen HiBiT-LGR5 in HEK293; format: binding; conditions: LGR5
T1 construct: purchased Promega (in-house HiBiT-GPCR construct library, NanoBRET)
T1 sequence (O75473 22-907): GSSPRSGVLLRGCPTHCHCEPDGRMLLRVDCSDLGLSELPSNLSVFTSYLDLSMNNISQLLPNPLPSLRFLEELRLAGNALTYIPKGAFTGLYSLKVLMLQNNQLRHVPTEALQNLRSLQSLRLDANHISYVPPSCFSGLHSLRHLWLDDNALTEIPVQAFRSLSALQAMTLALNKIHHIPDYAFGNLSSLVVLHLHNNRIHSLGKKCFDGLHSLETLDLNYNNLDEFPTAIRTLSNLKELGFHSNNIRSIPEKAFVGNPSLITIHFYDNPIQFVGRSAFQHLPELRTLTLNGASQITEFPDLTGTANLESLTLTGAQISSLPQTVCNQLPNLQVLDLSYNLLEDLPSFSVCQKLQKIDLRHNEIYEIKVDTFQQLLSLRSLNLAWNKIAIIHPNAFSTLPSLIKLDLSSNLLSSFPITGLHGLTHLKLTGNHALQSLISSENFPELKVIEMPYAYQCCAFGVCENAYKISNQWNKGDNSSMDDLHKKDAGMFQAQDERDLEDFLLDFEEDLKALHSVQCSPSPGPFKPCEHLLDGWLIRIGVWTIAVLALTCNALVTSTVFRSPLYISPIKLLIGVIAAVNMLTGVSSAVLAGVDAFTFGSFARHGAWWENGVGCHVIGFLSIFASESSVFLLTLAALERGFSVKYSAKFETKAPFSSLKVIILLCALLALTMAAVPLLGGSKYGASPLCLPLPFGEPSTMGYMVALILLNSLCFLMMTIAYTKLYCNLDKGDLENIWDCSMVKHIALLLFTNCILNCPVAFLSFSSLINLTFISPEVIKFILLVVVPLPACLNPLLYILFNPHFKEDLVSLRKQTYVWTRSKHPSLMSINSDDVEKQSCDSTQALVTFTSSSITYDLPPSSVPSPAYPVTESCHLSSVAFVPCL
Method: (§1) Each tracer candidate was screened across the entire library of HiBiT-GPCR constructs using NanoBRET as the detection modality. As depicted in Figure 4A, the specificity of interactions was evaluated through decrease in BRET due to competitive displacement of a bound tracer by excess parental compound. Each tracer was analyzed for binding to each HiBiT-GPCR fusion in the absence and in the presence of competing parental compound. Briefly, HEK293 cells were transfected with HiBiT-GPCR constructs diluted into promoterless DNA to reduce expression and maximize translocation to the cell surface. Each tracer candidate was then screened at concentrations of 1 μM and 0.1 μM across cells expressing these fusions. Cells were treated for 1.5 h with tracer either alone or in the presence of 20 μM competing parental compound (i.e., control). BRET was measured upon addition of purified LgBiT and subsequent complementation with HiBiT genetically fused to a GPCR. The specificity of interactions was assessed through a decrease in BRET signal due to competitive displacement of the bound tracer. To further gauge the robustness of these interactions, the fold response over the control (i.e., BRETtracer/BRETcontrol) was calculated. We chose a 1.5-fold response, which translates to ≥7-fold signal over noise as the minimal threshold required to score an interaction as positive.
(§2) HiBiT-GPCR DNA constructs were diluted in 10 mM Tris pH 8 to a final concentration of 0.01 μg/μL, arrayed in 96-well plates and stored at −20 °C. For transfection, HEK293 cells were suspended in Opti-MEM (without phenol red) supplemented with 2% fetal bovine serum (Seradigm) and 100 units/mL penicillin–streptomycin (Gibco) at a final concentration of 220,000 cells/mL and dispensed into white 96-well plates at 90 μL/well. Subsequent transfections and screens were carried using an Agilent Bravo Automated Liquid Handling Platform. First, the 96-well HiBiT DNA arrays were diluted 25-fold in Opti-MEM (without serum or phenol red) to a final concentration of 0.0004 μg/μL and 20 μL of the diluted DNAs were transferred into new 96-well plates. Next, promoterless carrier DNA (1 μg/μL) was diluted 25-fold (0.04 μg/μL) and then dispensed into the diluted arrays at 20 μL/well. Following brief mixing, Viafect transfection reagent (Promega) diluted 16-fold into Opti-MEM was dispensed into the plates at 40 μL/well. After mixing by pipetting, plates were incubated for 10 min on the pipetting station deck. The DNA-transfection reagent complexes were then added to plates containing cells. To facilitate the screen, 10 μL of DNA-transfection reagent complexes were added in duplicates to the top 4 and bottom 4 rows, resulting in two identical 48-well arrays per plate. Plates with transfected cells were incubated for 18–20 h at 37 °C/5% CO2. A screen of each tracer across the entire library using two different concentrations requires duplicate plates of transfected cells. Depending on the number of tracers being screened, transfections can be scaled up using the same ratios. The next day, for each tracer, four 20× screening solutions in tracer dilution buffer (Promega) were prepared: two duplicates at final concentration of 20 μM and two duplicates at a final concentration of 2 μM. […] The four resulting solutions were diluted 4-fold in Opti-MEM without serum or phenol red to generate 5× solutions (5 µM and 0.5 µM tracer +/− 100 μM competing compound). To screen the library, a BioTek MultiFlo FX liquid dispenser was used to dispense 22.5 µL of tracer solution to the top 4 rows and 22.5 µL tracer + competing compound solution to the 4 bottom rows. Plates were briefly mixed on an orbital shaker and incubated for 1.5 h at room temperature. […] Plates were briefly mixed on an orbital shaker and incubated for 15 min to allow complementation.

CNR2 = biological target: T2, CNR2 (Homo sapiens, UniProt P34972); assay: NanoBRET screen HiBiT-CNR2 in HEK293; format: binding; conditions: CNR2
T2 construct: purchased Promega (in-house HiBiT-GPCR construct library, NanoBRET)
T2 sequence (P34972 whole entry): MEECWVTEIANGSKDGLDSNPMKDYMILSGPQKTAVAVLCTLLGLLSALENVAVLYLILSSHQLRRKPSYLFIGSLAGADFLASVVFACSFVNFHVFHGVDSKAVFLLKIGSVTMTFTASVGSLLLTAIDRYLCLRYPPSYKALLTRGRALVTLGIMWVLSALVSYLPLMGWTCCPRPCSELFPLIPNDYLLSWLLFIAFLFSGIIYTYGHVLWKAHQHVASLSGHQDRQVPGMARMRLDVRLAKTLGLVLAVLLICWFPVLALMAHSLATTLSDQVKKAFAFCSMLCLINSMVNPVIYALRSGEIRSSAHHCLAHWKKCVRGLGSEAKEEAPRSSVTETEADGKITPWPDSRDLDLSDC
Method: as §1, §2

SMILES | NanoBRET Fold Response (LGR5; tracer 0.1μM) | NanoBRET Fold Response (LGR5; tracer 1μM) | NanoBRET Fold Response (CNR2; tracer 0.1μM) | NanoBRET Fold Response (CNR2; tracer 1μM)
CC(C)N(CC[C@H](c1ccccc1)c1cc(CCNC(=O)CCOCCOCCOCCOCCNC(=O)CCc2ccc3n2[B-](F)(F)[N+]2=C(c4ccc[nH]4)C=CC2=C3)ccc1O)C(C)C [Tolterodine-2-NB590] | 0.91 | 0.71 | 0.94 | 1.11
CC(C)N(CC[C@H](c1ccccc1)c1cc(CCNC(=O)c2ccc(CNC(=O)CCc3ccc4n3[B-](F)(F)[N+]3=C(c5ccc[nH]5)C=CC3=C4)cc2)ccc1O)C(C)C [Tolterodine-BZ-NB590] | 0.91 | 0.89 |  | 0.25
CCCn1c(=O)c2[nH]c(-c3ccc(OCC(=O)NCCNC(=O)CCOCCNC(=O)c4ccc(CNC(=O)CCc5ccc6n5[B-](F)(F)[N+]5=C(c7ccc[nH]7)C=CC5=C6)cc4)cc3)nc2n(CCC)c1=O [XAC-3-NB590] | 0.95 | 0.89 | 1.04 | 1.09
